Experimental data reported in patent US12133855B2, “Lipid-like nanocomplexes and uses thereof” (Trustees of Tufts College, priority 2018, dated 2024).

What was measured:
GFP-HEK cells [1] = test: Cas9:sgRNA RNP delivery, GFP gene knockout; format: cell-based; details: 48 h; 25 nM Cas9:sgRNA RNP; lipidoid 3.3 mg/L
Procedure: For CRISPR/Cas9 gene knockout study, GFP-HEK cells were seeded in 48-well plate with a density of 2×10^4 cell/well. After 24 h of incubation, Cas9:sgRNA/LNP nanoparticles were added to the cells and incubated for 4 h, followed by media changed. After 48 h of incubation, the green emission from GFP was analyzed by flow cytometry.
For the intracellular delivery, GFP-HEK cells were harvested after treating with Cas9:sgRNA/LNPs nanocomplexes for 48 h. GFP gene knockout efficacy was further evaluated by flow cytometry.

GFP-HEK cells [2] = test system: GFP-HEK cells
Procedure: Cell viability was measured by the standard MTT assay. HeLa-DsRed or GFP-HEK cells were seeded into 96-well plate with a density of 5×10^3 cell/well. (−30)GFP-Cre/LNP or Cas9:sgRNA/LNP nanoparticles were added after 24 h of incubation. The final concentration of protein is 25 nM and LNP is 3.3 mg/L. After incubating for 24 h or 48 h, the MTT reagent (5 mg/mL, in 30 μL PBS buffer) was added and the cells were incubated for another 4 h at 37° C. The cell culture media were then carefully removed and 200 μL of DMSO were added. The DMSO solution was transferred into another 96-well plate and the absorbance at 570 nm was recorded by microplate reader. All experiments were performed in quadruplicate.
In vitro cytotoxicity of Cas9:sgRNA/LNPs against GFP-HEK cells was also evaluated by the MTT assay.

HeLa cells [3] = test: Internalization of Dox loaded nanoparticles (flow cytometry); format: cell-based; details: 8 h of exposure
Procedure: After 24 h of incubation at 37° C., 5% CO2, Dox, CPT or Oxa loaded nanoparticles were added to the cells and incubated for 8 h followed by media change. The cells were then incubated for another 40 h before cell viability analysis.
Doxorubicin hydrochloride (Dox) (water soluble), and camptothecin (CPT) and oxaliplatin (Oxa) (water insoluble) were encapsulated into LNPs (see experimental section) and tested against HeLa cells. […] Then the internalization of Dox loaded 75-OCholB LNP (Dox/75-OCholB) was studied after 8 h of exposure using flow cytometry.

[4] = Hydrodynamic size and polydispersity of lipidoid nanoparticles by DLS; format: physicochemical; details: blank LNPs
Procedure: (§1) All chemicals used for lipidoids synthesis were purchased from Sigma-Aldrich without further purification unless otherwise noted. (−30)GFP-Cre recombinase, S. pyogenes Cas9 (spCas9) and sgRNA were generated following the protocols reported in Wang at al., Proc. Natl. Acad. Sci. USA, 2016, 113, 2868-2873 (“Wang”). HeLa-DsRed and GFP-HEK cells were cultured in Dulbecco's modified eagle's medium (DMEM, Sigma-Aldrich) with 10% fetal bovine serum (FBS, Sigma-Aldrich) and 1% penicillin-streptomycin (Gibco). All ^1H NMR spectra were recorded on a Bruker AVIII 500 MHz NMR spectrometer operated in the Fourier transform mode. Hydrodynamic size and polydispersity index of nanoparticles were measured by Zeta-PALS particle size analyzer (Brookhaven Instruments). The apparent pKa values of lipidoids were determined using 2-(p-toluidinynaphthalene-6-sulphonic acid) (TNS, Sigma-Aldrich) as fluorescent probe following the protocols reported in Heyes et al., J. Controlled Release, 2005, 107, 276-287. TEM measurements were performed on a FEI Technai Transmission Electron Microscope. Fluorescence images of tissue slices were obtained using BZ-X Analyzer fluorescence microscope.
Lipidoids nanoparticles (LNPs) were fabricated in sodium acetate buffer (25 mM, pH 5.2) by following the simple ultrasonication and vortex procedures described above. Hydrodynamic sizes and polydispersity index (PDI) of LNPs were measured by dynamic laser scattering (DLS) analysis.
Lipidoids were fabricated into nanoparticles for all delivery applications.
In this context, two strategies were tested, i.e., synthesizing new OCholB-tailed lipidoids with single tail rather than full substitution, and adding helper lipids (phospholipids) into fully substituted OCholB LNPs. […] The delivery efficacies of the single-tailed LNPs were first tested using GFP mRNA against HeLa cells (lipidoid/mRNA=10/1; [mRNA]=0.86 μg mL^−1; 24 h of exposure). […] We then tried to add helper lipids into the original two-tailed OCholB lipidoid nanoparticles formulations. As a proof-of-concept, DOPE was mixed with OCholB lipidoids (lipidoid/DOPE=1/1, weight ratio) and nanoparticles were fabricated (noted as 75-OCholB-F, 76-OCholB-F, and 77-OCholB-F) and loaded with Cas9 mRNA and sgRNA (mRNA/sgRNA=1/1, weight ratio).

HeLa-DsRed cells [5] = test: Cre-mediated gene recombination (DsRed expression) after (−30)GFP-Cre/LNP delivery; format: cell-based; details: 24 h; 25 nM (−30)GFP-Cre; lipidoid 3.3 mg/L
Procedure: (§2) The final (−30)GFP-Cre protein concentration is 25 nM, and lipidoid concentration is 3.3 mg/L. For the gene recombination functional study, HeLa-DsRed cells were treated with same conditions and the red fluorescence emission from DsRed was analyzed by flow cytometry 24 h after delivery.
The top 12 of LNPs identified through intracellular delivery screening experiments were further tested for gene recombination using HeLa-DsRed model cells. The expression of DsRed from Cre protein mediated gene recombination was analyzed after 24 h of co-incubation with free (−30)GFP-Cre protein and protein loaded LNPs. […] Most of the test LNPs, on the other hand, efficiently delivered (−30)GFP-Cre protein and induced gene recombination, with 14-46% of the cells positive for DsRed.

[6] = Storage stability of LNPs (time-dependent DLS, DiO/DiI FRET); format: physicochemical; details: DiO and DiI loaded LNPs, five days of storage
Procedure: (§3) The morphologies of LNPs were further studied by the transmission electron microscopy (TEM). […] Subsequently, the stability of LNPs thus prepared was examined by DLS and fluorescence measurements.
The cell (HeLa and HeLa-DsRed cell lines) internalization studies were conducted using small molecular hydrophobic (nile red) and hydrophilic (calcein) fluorescent dyes and macromolecular fluorescent recombinant protein ((−30)GFP-Cre) loaded OCholB LNPs. The stabilities of cargo-loaded LNPs were examined at first using time-dependent DLS and fluorescence measurements.

HeLa-DsRed cells [7] = test: Intracellular delivery of (−30)GFP-Cre/LNP (GFP-positive cells); format: cell-based; details: 25 nM (−30)GFP-Cre, lipidoid 3.3 mg/L; for green fluorescence emission (fluorescence microscopy): 6 h incubation; for GFP-positive cells: flow cytometry, 6 h
Procedure: as §2
A Cre recombinase protein fused to a negatively supercharged GFP variant ((−30)GFP-Cre) was used as a model cargo protein. The (−30)GFP-Cre protein was able to complex with cationic LNPs through electrostatic attraction and other types supramolecular interactions. The cellular uptake of LNPs could be determined by direct analysis of intracellular GFP fluorescent intensity as reported in Wang. HeLa-DsRed cells were used in this study, which expressed red fluorescent DsRed upon Cre-mediated recombination to facilitate the functional study of delivered proteins in the following study.
The (−30)GFP-Cre protein loaded LNPs (GFP-Cre/LNPs) were prepared at first by simply mixing precalculated amount of aqueous solution of LNPs and protein at ambient conditions. For the intracellular delivery, after incubation with GFP-Cre/LNPs nanoparticles for 6 h, the GFP-positive cells were observed using fluorescence microscopy, harvested and counted by flow cytometry. […] The intracellular (−30)GFP-Cre protein delivery efficiencies were further quantified by flow cytometry.

Ai14 mice = test: In vivo (−30)GFP-Cre delivery with formulated O17 LNPs, intravenous, tdTomato expression; parameters: species or system mouse; details: day 0 and day 5, 100 μg protein each, organs at day 20
Procedure: Formulated LNPs (lipidoid/Cholesterol/DOPE/DSPE-PEG2k=16/4/1/4, weight ratio) were prepared for protein loading and mice injection. Ai14 mice were housed in a temperature and humidity controlled facility with a 12 h light/dark cycle. Two mice in each group were injected with (−30)GFP-Cre/LNPs formulations on day 0 and 5, with 100 μg protein for each injection. Organs including heart, liver, spleen, lung and kidney from all groups were collected 20 days after injections. The tissues were fixed overnight in 4% paraformaldehyde (PFA) before being sectioning into 10 μm slices. The slices were collected and stained with DAPI for fluorescence imaging.
Upon Cre mediated gene recombination, the STOP cassette was removed, resulting in tdTomato expression. Considering the different performances of cargo loaded LNPs in vitro and in vivo, three LNPs with same amine heads and different tails (76-O17O, 76-O17S and 76-O17Se) were tested in this study. Formulated LNPs (lipidoid/cholesterol/DOPE/DSPE-PEG2k=16/4/1/4, weight ratio) were prepared. Mice were injected (intravenous injection) with (−30)GFP-Cre loaded the formulated LNPs (GFP-Cre/76-O17O, GFP-Cre/76-O17S, and GFP-Cre/76-O17Se) at day 0 and day 5 (100 μg of protein for each injection). […] Fluorescence images with lower magnification and larger field of view were obtained. […]

[8] = TEM size of lipidoid nanoparticles; format: physicochemical; details: TEM images of LNPs
Procedure: as §1, §3
The morphologies of OCholB fully substituted LNPs were then examined by transmission electron microscopy (TEM). […] In contrast, the vesicular structures were not well-formed for 87-OCholB and 90-OCholB compared to their counterparts, and amorphous aggregates were observed instead.

HeLa cells [9] = test: Internalization of calcein loaded nanoparticles; format: cell-based; details: 8 h of exposure
Procedure: The internalization kinetics and efficiencies of OCholB LNPs were then studied using NR loaded LNPs and HeLa cells. […] Next, all of the NR delivery efficiencies of eight OCholB LNPs were determined after 8 h of exposure. […] Representative fluorescent images of NR/LNPs (NR/75-OCholB, NR/76-OCholB and NR/77-OCholB) treated HeLa cells are shown in FIG. 12D, from which it is easily observed that NR was delivered into the cells and mainly distributed in cytoplasm, by OCholB LNPs. Next, the internalization of negatively charged hydrophilic fluorescent dye, calcein, was studied. […] Next, the use of OCholB LNPs for the intracellular delivery of macromolecular cargo was explored, using fluorescent recombinant (−30)GFP-Cre protein and HeLa-DsRed cells as the model system. […] Delivery efficiency was tested at a range of (−30)GFP-Cre protein concentrations (25, 50 and 100 nM), with a consistent lipid/protein ratio (i.e., delivery with the final lipid concentration of 1.7, 3.3, and 6.6 μg mL^−1 respectively). 33.2%, 43.8% and 74% of GFP positive (GFP^+) cells were recorded for (−30)GFP-Cre/Lpf2k treated cells with the concentration of (−30)GFP-Cre 25 nM, 50 nM and 100 nM, respectively. […]

| SMILES | GFP knockout (GFP-negative cells) (GFP-HEK cells [1]) [%] | cell viability (GFP-HEK cells [2]) [%] | averaged hydrodynamic diameter (<Dh>) [4] [nm] | polydispersity index (PDI, μ2/I^2) [4] | green fluorescence emission (fluorescence microscopy) (HeLa-DsRed cells [7]) | size measured by TEM [8] [nm] | also measured |
| --- | --- | --- | --- | --- | --- | --- | --- |
| CCCCCCCCCCCCCC[Se]CCOC(=O)CCN(CCCN(CC)CC)CCC(=O)OCC[Se]CCCCCCCCCCCCCC [Lipidoid 81-O17Se] | 54.7 | 97.7 |  |  |  |  |  |
| COc1cccc2c1C(=O)c1c(O)c3c(c(O)c1C2=O)C[C@@](O)(C(=O)CO)C[C@@H]3O[C@H]1C[C@H](N)[C@H](O)[C@H](C)O1.Cl [free Dox, Doxorubicin hydrochloride] |  |  |  |  |  |  | mean fluorescence intensity vs untreated control cells (internalization) (HeLa cells [3]): could be readily internalized |
| CCCCCCCCCCCCCC[Se]CCOC(=O)CCN(CCC(=O)OCC[Se]CCCCCCCCCCCCCC)CCN1CCCC1 [Lipidoid 76-O17Se] | 50.2 | 76.3 | 129.4 | 0.18 | bright green fluorescence emission | 133 | cells positive for DsRed (protein transfection efficiency) (HeLa-DsRed cells [5]): 36.1%; FRET ratio (I575/I575+I505) variations [6]: negligible; tdTomato signal in sections of lung (Ai14 mice): strong tdTomato signals |
| CCCCCCCCCCCCCCSCCOC(=O)CCN(CCC(=O)OCCSCCCCCCCCCCCCCC)CCN1CCCC1 [Lipidoid 76-O17S] |  |  | 114.3 | 0.24 | bright green fluorescence emission | 94 | cells positive for DsRed (protein transfection efficiency) (HeLa-DsRed cells [5]): 40.8%; tdTomato signal in sections of lung (Ai14 mice): strong tdTomato signals |
| O=C(O)CN(CC(=O)O)Cc1cc2c(cc1O)Oc1cc(O)c(CN(CC(=O)O)CC(=O)O)cc1C21OC(=O)c2ccccc21 [free calcein, calcein, reference compound] |  |  |  |  |  |  | mean fluorescent intensity vs free calcein-treated cells (HeLa cells [9]): cannot enter into the cells efficiently |
| CCCCCCCCCCCCCCOCCOC(=O)CCN(CCC(=O)OCCOCCCCCCCCCCCCCC)CCN1CCCC1 [Lipidoid 76-O17O] |  |  | 170.1 | 0.37 | bright green fluorescence emission | 145 |  |
| CCCCCCCCCCCCCC[Se]CCOC(=O)CCN(CCCN(C)C)CCCN(CCC(=O)OCC[Se]CCCCCCCCCCCCCC)CCC(=O)OCC[Se]CCCCCCCCCCCCCC [Lipidoid 400-O17Se] | 57.4 | 66.7 |  |  |  |  | GFP-positive cells (HeLa-DsRed cells [7]): 42% |
| CCCCCCCCCCCCCC[Se]CCOC(=O)CCN(CCCN(C)C)CCC(=O)OCC[Se]CCCCCCCCCCCCCC [Lipidoid 80-O17Se] | 57.7 | 68.2 |  |  |  |  | GFP-positive cells (HeLa-DsRed cells [7]): 39% |
